From ChEMBL document CHEMBL4342426, “Structure-activity relationship of 4-azaindole-2-piperidine derivatives as agents against Trypanosoma cruzi” (Bioorg Med Chem Lett, 2020)
pIC50: −log10 of the molar value.

Tests used:
in vitro [1] = details: PAMPA
Description: Effective permeability of compound by PAMPA assay

in vitro [2] = details: human, MRC5 SV2 cells
Description: Selectivity index, ratio of IC50 for human MRC5 SV2 cells to IC50 for Trypanosoma cruzi Tulahuen CL2 amastigotes infected in human MRC5 SV2 cells

cells = details: Homo sapiens, MRC-5 SV2, 72 h
Description: (§1) Cytotoxicity against human MRC5 SV2 cells assessed as reduction in cell viability incubated for 3 days by fluorimetry

Leishmania infantum = experiment: microbe, parasite or virus in culture; details: for pIC50: MHOM/MA(BE)/67/ITMAP263, 120 h; for IC90: MHOM/MA(BE)/67/ITMAP263, in Mus musculus, 120 h
Description: Antileishmanial activity against amastigote stage of Leishmania infantum MHOM/MA(BE)/67/ITMAP263 infected in mouse peritoneal macrophage assessed as parasite growth inhibition incubated for 5 days by Giemsa staining based assay

Trypanosoma brucei = experiment: microbe, parasite or virus in culture; details: Squib 427, 72 h
Description: Antitrypanosomal activity against Trypanosoma brucei Squib 427 assessed as reduction in parasite growth incubated for 72 hrs by resazurin dye based fluorimetric analysis

in vitro [3] = details: human, liver microsomes
Description: Metabolic stability in human liver microsomes assessed as intrinsic clearance at 0.5 uM incubated for 30 mins by LC-MS/MS analysis

Trypanosoma cruzi = experiment: microbe, parasite or virus in culture; details: Tulahuen CL2, MRC-5 SV2, 168 h
Description: Antitrypanosomal activity against Trypanosoma cruzi Tulahuen CL2 amastigotes infected in human MRC5 SV2 cells incubated for 7 days by chlorophenol red beta-D-galactopyranoside substrate based spectrophotometric assay

physchem = details: buffer, pH 7.4
Description: Lipophilicity, logD of compound at pH 7.4 by HPLC analysis

Macrophage = experiment: cells; details: Mus musculus, 72 h
Description: (§2) Cytotoxicity against mouse peritoneal Macrophage cells assessed as reduction in cell viability incubated for 3 days by fluorimetry

in vitro [4] = details: mouse, liver microsomes
Description: Metabolic stability in mouse liver microsomes assessed as intrinsic clearance at 0.5 uM incubated for 30 mins by LC-MS/MS analysis

in vitro [5] = details: human, MRC5 SV2 cells; remark: listed apart in the source
Description: Selectivity index, ratio of IC50 for human MRC5 SV2 cells to IC50 for Trypanosoma brucei rhodesiense STIB900 trypomastigotes

in vitro [6] = details: mouse, peritoneal macrophages
Description: as §2

in vitro [7] = details: human, MRC5 SV2 cells; remark: listed apart in the source
Description: as §1

[8] = system: Trypanosoma brucei rhodesiense; experiment: microbe, parasite or virus in culture; details: STIB900, 72 h
Description: Antiprotozoal activity against Trypanosoma brucei rhodesiense STIB900 trypomastigotes incubated for 72 hrs by resazurin dye based fluorimetric analysis

in vitro [9] = details: mouse, liver microsomes; remark: listed apart in the source
Description: Metabolic stability in mouse liver microsomes assessed as fraction unbound at 0.5 uM incubated for 30 mins by LC-MS/MS analysis

| Structure (SMILES) | Papp (in vitro [1]) [nm/s] | selectivity ratio (in vitro [2]) | pIC50 (cells) | pIC50 (Leishmania infantum) | IC90 (Leishmania infantum) [µM] | pIC50 (Trypanosoma brucei) | IC90 (Trypanosoma brucei) [µM] | CLint scaled at 0.5 h, 0.5 µM (in vitro [3]) [L/h/kg] | microsomal CLint at 0.5 h, 0.5 µM (in vitro [3]) [µL/min/mg] | pIC50 (Trypanosoma cruzi) | IC90 (Trypanosoma cruzi) [µM] | logD (physchem) | pIC50 (Macrophage) | CLint scaled at 0.5 h, 0.5 µM (in vitro [4]) [L/h/kg] | microsomal CLint at 0.5 h, 0.5 µM (in vitro [4]) [µL/min/mg] | selectivity ratio (in vitro [5]) | IC90 at 72 h (in vitro [6]) [µM] | IC90 at 72 h (in vitro [7]) [µM] | pIC50 [8] | IC90 [8] [µM] | also measured |
| --- | --- | --- | --- | --- | --- | --- | --- | --- | --- | --- | --- | --- | --- | --- | --- | --- | --- | --- | --- | --- | --- |
| O=C(Nc1cccc(-c2cc3ncccc3[nH]2)c1)c1ccccc1 | 6.06 | 30.7 | 4.19 | 4.28 | 64 | 4.19 | 64 | ≥ 23.5 | 363 | 5.68 | 3.8 | 3.88 | 4.19 | ≥ 100 | 522 | 13.9 | 64 | 64 | 5.34 | 23.7 | – |
| COc1ccc(Cl)cc1C(=O)N1CCCC(c2cc3ncccc3[nH]2)C1 (stereo unspecified) | – | 8.54 | 4.49 | 4.55 | 32 | 4.49 | 32 | 12.4 | – | 5.43 | 7.59 | – | 4.49 | 618 | – | 1.79 | 32 | 32 | 4.75 | 32 | – |
| CC(C)(O)c1cc(C(=O)N2CCCC(c3cc4ncccc4[nH]3)C2)on1 (stereo unspecified) | 4.5 | 1.9 | 4.19 | 4.19 | 64 | 4.19 | 64 | < 2.27 | < 23 | 4.47 | 64 | 2.3 | 4.19 | < 5.28 | < 23 | – | 64 | 64 | 4.19 | 64 | fraction unbound at 0.5 h, 0.5 µM (in vitro [9]): 0.661 to 0.839 |
| O=C(c1cc(C(F)(F)F)no1)N1CCC(c2cc3ncccc3[nH]2)C1 (stereo unspecified) | 28.6 | 7.25 | 4.19 | 4.19 | 64 | 4.19 | 64 | 5.75 | 58.2 | 5.08 | 64 | 3.12 | 4.19 | 325 | 1110 | – | 64 | 64 | 4.19 | 64 | fraction unbound at 0.5 h, 0.5 µM (in vitro [9]): 0.656 |
| O=C(c1ccc(F)cc1)N1CCCC(c2cc3ncccc3[nH]2)C1 (stereo unspecified) | 6.25 | 6.38 | 4.19 | 4.19 | 64 | 4.19 | 64 | 2.48 | 38.3 | 5.00 | 44.1 | 2.86 | 4.19 | 64.6 | 337 | 1.98 | 64 | 64 | 4.48 | 60.7 | – |
| O=C(c1cccc(C(F)(F)F)n1)N1CCCC(c2cc3ncccc3[nH]2)C1 (stereo unspecified) | 5.84 to 21.2 | 2.42 to 4.35 | 4.19 | 4.19 | 64 | 4.19 | 64 | 2.3 to 12.6 | 23 to 114 | 4.58 to 4.83 | 59.3 to 60.5 | 2.94 to 3.02 | 4.19 | 18.9 to 64.2 | 64 to 196 | – | 64 | 64 | 4.19 | 64 | fraction unbound at 0.5 h, 0.5 µM (in vitro [9]): 0.584 to 0.649 |
